Values of other authors, collected in US20080069909A1, “MENOPAUSE DISORDER SYNERGISTIC PHYTO-NUTRACEUTICAL COMPOSITION” (priority 2006, published 2008).
Like-named read-outs stand apart in the source and are kept apart here.

Tests used:
[1] = test system: bacterial resistance mechanism (multidrug pump)
[2] = molecular target: beta-estrogenic receptor (Homo sapiens, UniProt Q92731)
[3] = test system: estrogen receptor
[4] = test system: estrogen inducible genes
[5] = test system: estrogen receptors

Chain of beta-estrogenic receptor (Q92731 whole entry): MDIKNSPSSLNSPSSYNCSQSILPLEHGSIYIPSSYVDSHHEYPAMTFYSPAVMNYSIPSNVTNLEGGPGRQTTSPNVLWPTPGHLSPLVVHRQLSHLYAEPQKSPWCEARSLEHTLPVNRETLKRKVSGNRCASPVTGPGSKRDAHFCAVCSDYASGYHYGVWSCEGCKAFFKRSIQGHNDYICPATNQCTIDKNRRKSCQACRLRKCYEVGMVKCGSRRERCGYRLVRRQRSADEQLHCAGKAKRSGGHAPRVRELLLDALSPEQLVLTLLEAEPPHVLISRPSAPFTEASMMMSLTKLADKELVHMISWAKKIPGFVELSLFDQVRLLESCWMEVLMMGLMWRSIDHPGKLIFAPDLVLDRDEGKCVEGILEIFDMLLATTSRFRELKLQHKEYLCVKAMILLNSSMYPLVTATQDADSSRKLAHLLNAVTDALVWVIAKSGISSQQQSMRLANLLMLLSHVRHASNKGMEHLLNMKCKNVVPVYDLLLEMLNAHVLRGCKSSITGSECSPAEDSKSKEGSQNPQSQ

Question: With `COc1cc([C@H]2Oc3cc(-c4cc(=O)c5c(O)cc(O)cc5o4)cc(OC)c3O[C@@H]2CO)ccc1O` (racemic) [5′-MHC, 5′-methoxyhydnocarpin] as the compound, how does the “activity of herbal Berberine alkaloids” value ([1]; by the action of 5′-MHC) read?
Answer: The value was “strongly potentiated”.

Question: And the “accumulation of berberine in the cells” value ([1]; in the presence of 5′-MHC)?
Answer: The value was “strong increase”.

Question: Which receptor ligand [2] does the source give for `COc1cc2oc(-c3ccc(O)cc3)c(OC)c(=O)c2c(O)c1OC` [Penduletin] here?
Answer: Its receptor ligand is “specific ligands”.

Question: With `O=c1c(-c2ccc(O)cc2)coc2c([C@@H]3O[C@H](CO)[C@@H](O)[C@H](O)[C@H]3O)c(O)ccc12` [puerarin] as the compound, how does the estrogen-like effect ([3]; estrogen-deficiency animals) read?
Answer: The estrogen-like effect was “weak estrogen-like effect”.

Question: What about the estrogen-like effect ([3]; high-estrogen-level animals) of the same compound?
Answer: The estrogen-like effect was “antiestrogen-like effect”.

Question: What about the estrogen-like effect ([3]; normal-estrogen level animals) of the same compound?
Answer: The estrogen-like effect was “no effect”.

Question: Which receptor ligand [2] does the source give for `O=c1cc(-c2ccc(O)cc2)oc2cc(O)cc(O)c12` [apigenin] here?
Answer: The receptor ligand was “specific ligands”.

Question: For `CCCCC/C=C\C/C=C\CCCCCCCC(=O)O` [Linoleic acid], which “induction of estrogen inducible genes” value [4] is on record?
Answer: Its value is “induce certain estrogen inducible genes”.

Question: What about the “binding to estrogen receptors” value [5] of the same compound?
Answer: The value was “can bind to estrogen receptors”.
